From patent US12729231B2, “Fusion protein having triple activity and use thereof” (SHANGHAI MINWEI BIOTECHNOLOGY CO., LTD, priority 2023, dated 2026)

Legend:
DIO mice = assay: body weight reduction by multiple subcutaneous injections in DIO mice; format: in vivo; conditions: 30 nmol/kg subcutaneous twice a week for 5 weeks, mean of 6 mice
Procedure: 7-week-old C57BL/6Nju mice were fed with a high-fat diet (of about 20% protein and about 60% fat) for 12 weeks for modeling. Feeding conditions: 12 hours of light and 12 hours of darkness cycle every day, ad libitum feeding, temperature 20-25° C., relative humidity 40-70%, ventilation frequency of 10-15 times/hour. According to body weight, water consumption, and food intake, the mice were randomly divided into groups the day before administration. […] Subcutaneous injection treatment was administered twice a week for 5 consecutive weeks, for a total of 10 administrations. After the administration, the body weight, OGTT, body fat ratio, blood lipids and liver function of the mice were measured. The data are shown as mean±standard deviation, and statistically analyzed by One-Way ANOVA.

[1] = cynomolgus macaques; cited from earlier work

In the case of Tirzepatide, the ALT (DIO mice; DIO mice) is reported as 19.000 U/L, the AST (DIO mice; DIO mice) is reported as 54.683 U/L and the “Blood glucose (fasting)” value (DIO mice; DIO mice) is reported as 7.2 mmol/L. For the same molecule, the “LDL-C (plasma low-density lipoprotein cholesterol)” value (DIO mice; DIO mice) was 0.423 mmol/L, the “TC (plasma total cholesterol)” value (DIO mice; DIO mice) was 3.923 mmol/L and the “% Change in weight since inception” value (DIO mice; DIO obese mice) was −22.55%.

B1: natural FGF21: Fibroblast growth factor 21, wild type, SEQ ID NO 1 (protein)
chain: HPIPDSSPLLQFGGQVRQRYLYTDDAQQTEAHLEIREDGTVGGAADQSPESLLQLKALKPGVIQILGVKTSRFLCQRPDGALYGSLHFDPEACSFRELLLEDGYNVYQSEAHGLPLHLPGNKSPHRDPAPRGPARFLPLPGLPPALPEPPGILAPQPPDVGSSDPLSMVGPSQGRSPSYAS
modifications: Wild type FGF21
In the case of B1, the half-life in vivo [1] is given as 2 to 3 h.

B2: FGF21 L98R, P171G, A180E: FGF21 with the L98R, P171G, and A180E mutations, background literature variant (protein, UniProt Q9NSA1 29-209, looked up, variant L98R P171G A180E)
Fibroblast growth factor 21: HPIPDSSPLLQFGGQVRQRYLYTDDAQQTEAHLEIREDGTVGGAADQSPESLLQLKALKPGVIQILGVKTSRFLCQRPDGALYGSLHFDPEACSFRERLLEDGYNVYQSEAHGLPLHLPGNKSPHRDPAPRGPARFLPLPGLPPALPEPPGILAPQPPDVGSSDPLSMVGGSQGRSPSYES
For B2, the half-life in vivo [1] is listed as “about 70 hours”.
